Test results from patent US6794385B2, “Benzoxazine derivatives useful as integrin receptor antagonists” (Pharmacia & Upjohn, S.p.A., priority 2001, dated 2004).

Legend:
human αvβ3 integrin = target: T1, human αvβ3 integrin (Homo sapiens, UniProt P05106+P06756); assay: αvβ3-vitronectin binding assay (solid phase); conditions: for IC50: inhibition of biotinylated vitronectin (5 nM) binding to coated αvβ3, read-out: αvβ3 (IC50 μmol); for ratio between αIIbβ3 and αvβ3 inhibiting activity: selectivity, αIIbβ3 IC50 over αvβ3 IC50
T1 construct: was purified from human placenta; from tissue; host or cells: human placenta
Procedure: A solid phase assay for the study of αvβ3-vitronectin binding was set up on the basis of already published methods (Wong et al., Molecular Pharmacology 50: 529-537, 1996; Brooks et al., Cell 85: 683-693, 1996). The human αvβ3 integrin was diluted into coating buffer (CB) containing 150 mM NaCl, 1 mM CaCl2, 1 mM MgCl2, 1 mM MnCl2, 20 mM TRIS, pH 7.4 at a concentration of 1.5 μg/ml. Into 96-well plates, 50 μl of the diluted integrin were added and allowed to bind to the plate walls overnight at 4° C. Next day, the assay plates were emptied and 100 μl of blocking buffer (CB buffer with 3% BSA) were added to each well for 45 min at 37° C. After the incubation, the plates were washed three times with 100 μl assay buffer (AB, CB buffer with 0.1% BSA). Serial 1:1 dilution (25 μl/well) of the test compounds were added to the plates, starting from 10 mM solutions in 100% DMSO diluted to 100 µM in AB. The binding reaction was started by addition (25 μl/well) of 10 nM biotinylated vitronectin (final concentration: 5 nM), and lasted 30 min at 37° C. The concentration range of the tested compounds spanned from 50 to 0.0005 μM. At the end of the co-incubation, the assay plates were washed as before and 70 μl of a 1:1000 AB dilution of peroxydase-conjugated streptavidin were added per well and were allowed to react for 45 min at 37° C. Then, the plates were washed as described and 50 μl of ready to use Turbo-TMB substrate for peroxydase were added to each well. After 30 minutes incubation at room temperature, the colour development was stopped with 50 μl sulphuric acid 0.38 M and the plates were read at a wavelength of 450 nm with a Packard plate reader. The values obtained were analyzed by four parameters curve fit in the computer program GraphPad Prism, after normalization by a maximum binding control (Bmax) detected in wells where no competitor was added, and a minimum binding control (NSB) detected in wells where no integrin was coated. Under standard assay conditions, A450 was never under 1.0 for Bmax, and around 0.15 for NSB.
Human vitronectin receptor ([…]v[…]3) was purified from human placenta (Pytela et al., Methods in Enzymology, 144: 475-489, 1987). Turbo-TMB was from PIERCE (34022). BSA (A4503), Vitronectin (V8379), RGD peptide (G4144) and all generic reagents were from SIGMA. Vitronectin was biotinylated according to the procedure indicated in the NHS biotinylation kit from PIERCE (21420). Horseradish peroxydase-streptavidin was from Amersham (RPN1231). 96-well plates were from Costar (#3690, EIA/RIA plate, ½ area flat bottom, high binding).

[1] = target: T2, αIIbβ3 integrin (human fibrinogen receptor) (Homo sapiens, UniProt P05106+P08514); assay: αIIbβ3-fibrinogen binding assay (solid phase); conditions: inhibition of biotinylated fibrinogen (10 nM) binding to coated αIIbβ3; read-out: αIIbβ3 (IC50 μmol)
T2 construct: was purified from human platelets; from tissue; host or cells: human platelets
Procedure: A solid phase assay for the study of αIIbβ3-fibrinogen binding was set up on according to the method described for αvβ3. αIIbβ3 integrin was diluted into coating buffer (CB) containing 150 mM NaCl, 1 mM CaCl2, 1 mM MgCl2, 1 mM MnCl2, 20 mM TRIS, pH 7.4 at a concentration of 3 μg/ml. Into 96-well plates, 50 μl of the diluted integrin were added and allowed to bind to the plate walls overnight at 4° C. Next day, the assay plates were emptied and 100 μl of blocking buffer (CB buffer with 3% BSA) were added to each well for 45 min at 37° C. […] Then, the plates were washed as described and 50 μl of ready to use Turbo-TMB substrate for peroxydase were added to each well. After 30 minutes incubation at room temperature, the colour development was stopped with 50 μl sulphuric acid 0.38 M and the plates were read at a wavelength of 450 nm with a Packard plate reader. The values obtained were analysed by four parameters curve fit with the computer program GraphPad Prism, after normalization by a maximum binding control (Bmax) detected in wells where no competitor was added, and a minimum binding control (NSB) detected in wells where no integrin was coated. […]

T1 sequence (P06756 31-889 limits assumed): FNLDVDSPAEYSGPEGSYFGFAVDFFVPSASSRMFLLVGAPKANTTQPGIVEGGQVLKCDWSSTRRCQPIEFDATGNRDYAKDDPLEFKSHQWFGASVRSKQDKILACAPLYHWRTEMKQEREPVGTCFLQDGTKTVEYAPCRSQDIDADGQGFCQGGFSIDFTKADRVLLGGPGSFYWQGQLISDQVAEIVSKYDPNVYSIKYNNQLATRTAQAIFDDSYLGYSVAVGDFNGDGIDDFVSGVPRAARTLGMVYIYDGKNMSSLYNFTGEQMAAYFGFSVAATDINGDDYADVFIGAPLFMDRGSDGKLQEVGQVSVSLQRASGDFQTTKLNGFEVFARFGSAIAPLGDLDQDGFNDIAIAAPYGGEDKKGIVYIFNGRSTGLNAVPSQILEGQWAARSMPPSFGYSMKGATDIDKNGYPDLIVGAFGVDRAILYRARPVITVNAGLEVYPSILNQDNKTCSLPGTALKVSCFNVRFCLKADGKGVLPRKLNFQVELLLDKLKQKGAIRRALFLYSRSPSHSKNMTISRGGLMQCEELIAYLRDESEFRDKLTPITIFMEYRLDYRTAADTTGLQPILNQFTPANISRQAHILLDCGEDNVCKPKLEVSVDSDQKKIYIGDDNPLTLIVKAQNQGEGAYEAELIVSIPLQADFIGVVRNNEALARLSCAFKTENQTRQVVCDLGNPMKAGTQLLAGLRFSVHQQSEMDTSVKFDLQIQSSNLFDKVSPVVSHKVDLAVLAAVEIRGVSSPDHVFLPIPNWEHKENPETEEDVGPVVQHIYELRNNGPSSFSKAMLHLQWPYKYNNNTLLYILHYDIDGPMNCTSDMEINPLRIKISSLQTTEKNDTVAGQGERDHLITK
T1 sequence (P06756 891-1048 partner limits assumed): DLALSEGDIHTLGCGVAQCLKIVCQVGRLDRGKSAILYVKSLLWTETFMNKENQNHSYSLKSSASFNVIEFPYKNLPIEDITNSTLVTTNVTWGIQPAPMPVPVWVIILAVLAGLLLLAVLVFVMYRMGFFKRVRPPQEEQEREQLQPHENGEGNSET
T1 sequence (P05106 27-788): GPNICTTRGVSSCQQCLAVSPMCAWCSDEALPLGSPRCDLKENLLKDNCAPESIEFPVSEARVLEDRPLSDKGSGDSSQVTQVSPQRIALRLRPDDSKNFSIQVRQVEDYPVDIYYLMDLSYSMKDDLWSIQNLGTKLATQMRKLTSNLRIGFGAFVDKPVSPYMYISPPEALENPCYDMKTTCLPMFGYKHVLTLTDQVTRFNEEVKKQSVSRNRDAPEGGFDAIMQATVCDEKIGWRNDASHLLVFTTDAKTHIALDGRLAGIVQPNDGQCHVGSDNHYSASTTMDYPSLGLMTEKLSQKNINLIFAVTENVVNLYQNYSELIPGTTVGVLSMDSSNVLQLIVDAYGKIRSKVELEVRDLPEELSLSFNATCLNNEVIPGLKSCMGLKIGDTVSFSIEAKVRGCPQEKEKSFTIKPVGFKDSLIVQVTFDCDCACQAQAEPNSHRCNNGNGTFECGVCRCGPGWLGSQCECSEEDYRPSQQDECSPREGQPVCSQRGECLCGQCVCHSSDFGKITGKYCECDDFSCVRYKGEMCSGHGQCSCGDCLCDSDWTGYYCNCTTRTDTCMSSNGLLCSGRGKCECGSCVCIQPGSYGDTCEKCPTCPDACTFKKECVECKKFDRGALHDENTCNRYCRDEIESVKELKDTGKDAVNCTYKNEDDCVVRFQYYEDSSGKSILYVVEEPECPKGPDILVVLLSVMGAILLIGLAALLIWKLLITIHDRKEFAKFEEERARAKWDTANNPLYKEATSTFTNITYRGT
T2 sequence (P08514 32-887 limits assumed): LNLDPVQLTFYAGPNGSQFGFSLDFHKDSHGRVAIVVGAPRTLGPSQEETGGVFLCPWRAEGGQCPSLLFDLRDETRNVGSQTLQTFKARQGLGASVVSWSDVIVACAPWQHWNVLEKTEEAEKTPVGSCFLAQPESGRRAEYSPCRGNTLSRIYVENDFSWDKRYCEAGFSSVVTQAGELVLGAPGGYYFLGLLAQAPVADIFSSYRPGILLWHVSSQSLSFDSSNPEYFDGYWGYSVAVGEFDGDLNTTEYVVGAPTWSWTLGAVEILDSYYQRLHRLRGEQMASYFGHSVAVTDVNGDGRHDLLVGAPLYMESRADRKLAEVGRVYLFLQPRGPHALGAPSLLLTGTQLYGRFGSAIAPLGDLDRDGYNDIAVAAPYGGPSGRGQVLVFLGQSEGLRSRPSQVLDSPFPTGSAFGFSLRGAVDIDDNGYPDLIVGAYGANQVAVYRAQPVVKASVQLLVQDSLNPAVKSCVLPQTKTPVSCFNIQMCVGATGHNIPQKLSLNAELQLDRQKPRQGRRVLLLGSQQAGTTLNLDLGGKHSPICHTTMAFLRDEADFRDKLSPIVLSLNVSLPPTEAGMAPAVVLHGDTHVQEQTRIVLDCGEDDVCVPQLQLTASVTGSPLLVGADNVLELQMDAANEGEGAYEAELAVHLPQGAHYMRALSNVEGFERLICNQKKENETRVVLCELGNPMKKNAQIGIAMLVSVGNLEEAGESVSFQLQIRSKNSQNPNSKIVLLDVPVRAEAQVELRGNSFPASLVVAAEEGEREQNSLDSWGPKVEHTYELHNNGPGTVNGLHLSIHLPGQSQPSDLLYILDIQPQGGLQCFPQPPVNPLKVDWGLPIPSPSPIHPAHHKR
T2 sequence (P08514 891-1039 partner limits assumed): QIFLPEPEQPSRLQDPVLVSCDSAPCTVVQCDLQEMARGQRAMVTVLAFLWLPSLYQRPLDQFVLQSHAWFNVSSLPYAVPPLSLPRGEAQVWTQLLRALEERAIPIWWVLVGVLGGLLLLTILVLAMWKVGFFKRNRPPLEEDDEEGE
T2 sequence (P05106 27-788): as the sequence (P05106 27-788) above

IC50 (human αvβ3 integrin) | ratio between αIIbβ3 and αvβ3 inhibiting activity (human αvβ3 integrin) | IC50 [1] | Structure (SMILES)
0.044 ± 0.025 µM | about 1,000 | 30 µM | O=C(O)CC1CN(c2ccccc2)c2cc(NC(=O)CCNc3ccccn3)ccc2O1 (stereo not drawn) [Compound 1a, (4-phenyl-6-{[3-(2-pyridinylamino)propanoyl]amino}-3,4-dihydro-2H-1,4-benzoxazin-2-yl)acetic acid]
0.024 ± 0.009 µM | about 1,000 | 27 µM | O=C(O)CC1CN(c2ccccc2)c2cc(NC(=O)CCCNc3ccccn3)ccc2O1 (stereo not drawn) [Compound 1b, (4-phenyl-6-{[4-(2-pyridinylamino)butanoyl]amino}-3,4-dihydro-2H-1,4-benzoxazin-2-yl)acetic acid]
